Test results taken from article PMC9635472, “Design, synthesis, and biological evaluation of novel ciprofloxacin derivatives as potential anticancer agents targeting topoisomerase II enzyme” (Journal of Enzyme Inhibition and Medicinal Chemistry, 2022).
“And” between values parts separate entries of the source, which are not always exact repeats. Identical values can stand only once.

How the values were obtained:
Assay type in all cases: cell-based, human
PC-3 cells = experiment: Apoptosis determination by annexin V-FITC/PI assay, PC-3 cells; conditions: at IC50, 24 h
Method: (§1) Apoptosis was evaluated using Annexin V fluorescein isothiocyanate (FITC) and propidium iodide (PI) using the Annexin V-FITC/PI apoptosis detection kit (Biovision, Mountain View, CA # K101-25). According to the manufacturer’s instructions after staining the cells with annexin V fluorescein (FITC) isothiocyanate. […] Cells were centrifuged and washed once with serum-containing media followed by resuspension in 500 µl of binding buffer. Then 5 µl Annexin V-FITC and 5 µl of (PI […]) were added and incubated for 5 min at room temperature in the dark. Analyses were performed using a flow cytometer (EX = 488 nm: Em = 530 nm) using a FITC signal detector and PI staining by a phycoerythrin emission signal detector.
While compound 8a induced both early and late apoptosis with 41.15- and 76.77-fold more than the control, respectively, and induced total apoptosis and necrosis with 14.87- and 2.44-fold more than the control, sequentially (Figure 16).

T-24 cells = experiment: Apoptosis determination by annexin V-FITC/PI assay, T-24 cells; conditions: at IC50, 24 h
Method: as §1
To verify the ability of compounds 6 and 8a to induce apoptosis, a flow cytometry assay was performed using propidium iodide (PI), and immunofluorescent markers of the protein annexin-V. Dual staining for annexin-V and with PI provides the distinction between viable cells, early apoptotic cells, late apoptotic cells, and necrotic cells. […] While compound 8a induced both early and late apoptosis with 21.16- and 114.90-fold more than the control, respectively, and induced total apoptosis and necrosis with 20.1- and 4.28-fold more than the control, sequentially (Figure 14).

active caspase-3 = experiment: Active caspase-3 ELISA in T-24 cells; conditions: 6 at 5.68 μM, 8a at 3.36 μM; for Caspase-3 conc. (pg/ml* ± SD): means of three experiments
Method: The level of the apoptotic marker caspase-3 was measured using The Invitrogen Caspase-3 (active) Human ELISA Kit. The procedure of the used kit was done according to the manufacturer’s instructions.
Caspase-3 (a key effector enzyme) plays an important role in apoptosis since its activation leads to catalysing specific enzymes responsible for DNA fragmentation, which leads to cell death. Apoptosis induction in T-24 cells by compounds 6 and 8a was investigated via caspase 3, compared to doxorubicin as a reference drug.

| SMILES | early apoptosis, fold more than the control (PC-3 cells) | late apoptosis, fold more than the control (PC-3 cells) | necrosis, fold more than the control (PC-3 cells) | total apoptosis, fold more than the control (PC-3 cells) | early apoptosis, fold more than the control (T-24 cells) | late apoptosis, fold more than the control (T-24 cells) | necrosis, fold more than the control (T-24 cells) | total apoptosis, fold more than the control (T-24 cells) | increase in level of active caspase-3 compared to the control (active caspase-3) | Caspase-3 conc. (pg/ml* ± SD) (active caspase-3) |
| --- | --- | --- | --- | --- | --- | --- | --- | --- | --- | --- |
| O=C1CC(=O)N(C(=O)CN2CCN(c3cc4c(cc3F)c(=O)c(C(=O)O)cn4C3CC3)CC2)N1 [Compound 6, 1-cyclopropyl-7-(4-(2-(3,5-dioxopyrazolidin-1-yl)-2-oxoethyl)piperazin-1-yl)-6-fluoro-4-oxo-1,4-dihydroquinoline-3-carboxylic acid] | 54.69 fold | 31.72 fold | 1.62 fold | 13.02 fold | 16.27 fold | 83.38 fold | 6.25 fold | 16.77 fold and 16.8 fold | 5.23 fold | 362.9 ± 8.58 pg/mL |
| O=C(CN1CCN(c2cc3c(cc2F)c(=O)c(C(=O)O)cn3C2CC2)CC1)NN=C1C(=O)Nc2ccccc21 [Compound 8a, 1-Cyclopropyl-6-fluoro-4-oxo-7-(4-(2-oxo-2-(2-(2-oxoindolin-3-ylidene)hydrazinyl)ethyl)piperazin-1-yl)-1,4-dihydroquinoline-3-carboxylic acid] | 41.15 fold | 76.77 fold | 2.44 fold | 14.87 fold | 21.16 fold | 114.90 fold | 4.28 fold | 20.1 fold | 7.6 fold | 527.6 ± 8.39 pg/mL |
